Consider 3 compounds from article PMC9880438, “Pharmacokinetics of active compounds of a Terminalia chebula Retz. Ethanolic extract after oral administration rats using UPLC-MS/MS” (Frontiers in Pharmacology, 2023).

The nature of series [1]: Stability of QC samples of the analytes in rat plasma under storage conditions. It counts as physicochemical. The conditions noted are these: n = 6. As for the experimental part:
Preparation of quality control (QC) samples with three concentrations (low, medium, and high) of 16, 160, and 3,200 ng/ml for ellagic acid; 1.6, 16, 320 ng/ml for protocatechuic acid, ethyl gallate and 1,2,3,4,6-O-pentagalloylglucose; 40, 400 and 8,000 ng/ml for chebulic acid, gallic acid, corilagin and chebulinic acid and 160, 1,600, 32000 ng/ml for chebulagic acid. Both QC samples and stock solutions were stored in a refrigerator at 4°C.
Under variable treatment conditions: stored for 12 h at auto-sampler, for 4 hours at room temperature, under three freeze-thaw cycles, and kept at −80°C for 7 days, quality control samples were analyzed to assess the stability of the nine analytes in plasma.

Series [2] can be described thus: Pharmacokinetic study in rats after oral administration of TC extracts (UPLC-MS/MS of plasma). The conditions noted are these: for AUC / AUC(0-inf) / Cmax / MRT / MRT inf / Tmax / half-life: male, Sprague-Dawley, rat, plasma, po, 10 g/kg.
Protocol: UPLC-MS/MS system was used for analysis and monitoring, which consisted primarily of an Agilent 1290 UPLC system (Agilent Technologies, Germany) and an Agilent 6,470 series triple quad (TQ) mass spectrometer (MS) (Agilent Technologies, Singapore) equipped with an electrospray ionization source.
Separation was carried out on an ACQUITY UPLC® HSS T3 column (2.1 × 100 mm, 1.8 μm), and temperature in the column was kept at 20°C. In the mobile phase, 0.1% formic acid in water and acetonitrile were used as solvents A and B, respectively. Gradient elution was performed as follows: 1%–5% B at 0–3 min; 5%–30% B at 3–4 min; 30%–40% B at 4–8 min; 40%–100% B at 8–9 min; 100%–100% B at 9–12 min. The flow rate was set at 0.3 ml/min and the injection volume was 10 μL.
Multiple reaction monitoring (MRM) was used for quantitative analysis in negative (−) ionization mode. The mass spectrometric parameters were set as follows: drying gas (N2) temperature was 300°C; gas (N2) flow rate was 7 L/min; atomizer pressure was 35 psi; sheath gas flow was 11 L/min and capillary voltage was 3800 V. The specific mass spectrometric parameters of the precursor ion, product ion, fragmentor, collision energy, and ion modes of the nine compounds and IS are shown in Table 1.
The plasma sample (100 μl) was sequentially spiked with 20 μl IS solutions (caffeic acid, 1,000 ng/ml); 20 μL methanol, and 10 μl formic acid, then vortex-mixed for 1 min. The mixture was precipitated protein with 1,000 μl methanol by vortex mixing for 3 min. The supernatant was collected into a 1.5 ml clean centrifuge tube after centrifugation at for 10 min 14,000 rpm, and evaporated under a nitrogen stream until dry. After that, the residue was redissolved in 100 μl methanol, vortex-mixed for 3 min, then centrifuged for 10 min at 14,000 rpm. 10 μl analyte was injected into the UPLC-MS/MS system.
In this study, six of male rats were used, given free access to water, and fasted for 12 h before the experimental period. The TC extracts were dissolved in 0.5% CMC-Na aqueous solution as a suspension at a concentration of 1 g/ml. A dose of 10 g/kg of the suspension was administered to the rats orally, the blood samples of approximately 300 μL were drawn from the fundus venous plexus of rats pre- and post-oral administration at 0.00, 0.08, 0.17, 0.25, 0.50, 0.75, 1, 2, 4, 6, 8, 10, 12, 24, 36, 48, 60, 72, 84, 96, 120, 144 and 168 h, respectively. For analysis, the plasma supernatants collected from the centrifuged plasma were frozen at −80°C after centrifugation for 10 min at 6,000 rpm.
Data were expressed as mean ± standard deviation (mean ± SD). MassHunter Workstation software (version B.09.00) was quantitatively used to calculate the plasma concentrations of nine analytes. To evaluate the specific pharmacokinetic parameters, DAS Software (DAS 3.0, Medical College of Wannan, China) was used to process the pharmacokinetic results.
Where [3] appears, read: spiked 1.6 ng/mL, autosampler for 12 h.
The mark [4] stands for this setting: spiked 1.6 ng/mL, room temperature for 4 h.
Setting [5] is: spiked 1.6 ng/mL, three freeze-thaw cycles.
[6] abbreviates: spiked 1.6 ng/mL, −80°C for 7 days.
The mark [7] stands for this setting: spiked 16 ng/mL, autosampler for 12 h.
[8] abbreviates: spiked 16 ng/mL, room temperature for 4 h.
Where [9] appears, read: spiked 16 ng/mL, three freeze-thaw cycles.
Setting [10] is: spiked 16 ng/mL, −80°C for 7 days.
The mark [11] stands for this setting: spiked 320 ng/mL, autosampler for 12 h.
[12] abbreviates: spiked 320 ng/mL, room temperature for 4 h.
The mark [13] stands for this setting: spiked 320 ng/mL, three freeze-thaw cycles.
The mark [14] stands for this setting: spiked 320 ng/mL, −80°C for 7 days.

Take `O=C(O)c1ccc(O)c(O)c1` [Protocatechuic acid, protocatechuic acid]: the “Measured concentration after storage” value in series [1] (setting [3]) worked out at 1.7 ± 0.2 ng/mL; in series [1] (setting [4]), 1.6 ± 0.1 ng/mL; in series [1] (setting [5]) it was 1.8 ± 0.1 ng/mL; in series [1] (setting [6]), 1.5 ± 0.2 ng/mL; in series [1] (setting [7]), 14.5 ± 2.0 ng/mL; in series [1] (setting [8]) it was 16.4 ± 0.6 ng/mL. Further, the “Measured concentration after storage” value is reported as 13.9 ± 0.7 ng/mL in series [1] (setting [9]); 13.1 ± 1.2 ng/mL in series [1] (setting [10]); 305.9 ± 15.9 ng/mL in series [1] (setting [11]); 297.9 ± 8.4 ng/mL in series [1] (setting [12]); 330.3 ± 18.5 ng/mL in series [1] (setting [13]); 334.2 ± 8.0 ng/mL in series [1] (setting [14]). In series [2], the AUC (commonly the area under the concentration-time curve, a measure of exposure) amounted to 70.8 ± 16.6 ng·h/mL. Moreover, the area under the curve AUC(0-inf) (usually total exposure, with the tail of the curve extrapolated) in series [2] is 70.8 ± 16.6 ng·h/mL. In addition, the peak level in series [2] (Cmax) was 24.7 ± 3.27 ng/mL. In addition, in series [2], the mean residence time MRT (usually a mean duration of stay, worked out from the concentration-time curve) came out at 3.39 ± 0.83 h. Besides, in series [2], the mean residence time (MRT inf) (as a rule, a mean duration of stay, worked out from the concentration-time curve) is 3.39 ± 0.83 h. In addition, the time of peak concentration (Tmax) (commonly the time at which the peak concentration occurs) in series [2] was determined as 0.54 ± 0.1 h. In addition, in series [2], the half-life (commonly the time in which the quantity being followed falls by half) was 2.06 ± 0.76 h.

As for `O=c1oc2c(O)c(O)cc3c(=O)oc4c(O)c(O)cc1c4c23` [Ellagic acid, ellagic acid], the “Measured concentration after storage” value is recorded as 17.6 ± 1.6 ng/mL in series [1] (setting [7]); 17.5 ± 1.7 ng/mL in series [1] (setting [8]); 16.9 ± 1.4 ng/mL in series [1] (setting [9]); 16.8 ± 1.0 ng/mL in series [1] (setting [10]); 154.8 ± 13.9 ng/mL in series [1] (spiked 160 ng/mL, autosampler for 12 h); 156.3 ± 17.8 ng/mL in series [1] (spiked 160 ng/mL, room temperature for 4 h). Besides, the “Measured concentration after storage” value in series [1] (spiked 160 ng/mL, three freeze-thaw cycles) is 171.8 ± 10.5 ng/mL; in series [1] (spiked 160 ng/mL, −80°C for 7 days), 163.8 ± 4.3 ng/mL; in series [1] (spiked 3,200 ng/mL, autosampler for 12 h), 3,450.0 ± 313.1 ng/mL; in series [1] (spiked 3,200 ng/mL, room temperature for 4 h), 3,437.2 ± 188 ng/mL; in series [1] (spiked 3,200 ng/mL, three freeze-thaw cycles), 3,438.7 ± 285.7 ng/mL; in series [1] (spiked 3,200 ng/mL, −80°C for 7 days), 3,594.0 ± 81.5 ng/mL. For the same compound, the exposure (AUC) in series [2] was determined as 6810 ng·h/mL. The AUC(0-inf) in series [2] came out at 7340 ng·h/mL. Also, the peak concentration (Cmax) (in general, the peak of the concentration-time curve) in series [2] is 390 ± 80.5 ng/mL. This compound returned an MRT in series [2] of 45.9 ± 8.13 h. Moreover, in series [2], the MRT inf was 56.5 ± 13 h. Also, the Tmax in series [2] was found to be 0.97 ± 0.84 h. For the same compound, in series [2], the half-life was 8.23 ± 8.95 h. Also, the “Shape of plasma concentration-time curve” value in series [2] (rat plasma, oral TC extracts, Figure 2) is “double peaks phenomenon”.

As to `CCOC(=O)c1cc(O)c(O)c(O)c1` [Ethyl gallate, ethyl gallate], the “Measured concentration after storage” value worked out at 1.7 ± 0.2 ng/mL in series [1] (setting [3]); 1.4 ± 0.1 ng/mL in series [1] (setting [4]); 1.6 ± 0.1 ng/mL in series [1] (setting [5]); 1.6 ± 0.1 ng/mL in series [1] (setting [6]); 16.3 ± 2.6 ng/mL in series [1] (setting [7]); 14.6 ± 1.9 ng/mL in series [1] (setting [8]). In addition, the “Measured concentration after storage” value in series [1] (setting [9]) was determined as 13.6 ± 1.2 ng/mL; in series [1] (setting [10]) it was 14.2 ± 0.4 ng/mL; in series [1] (setting [11]), 323.3 ± 13.8 ng/mL; in series [1] (setting [12]) it was 345.6 ± 14.7 ng/mL; in series [1] (setting [13]) it was 328.6 ± 17.1 ng/mL; in series [1] (setting [14]) it was 307.4 ± 29.5 ng/mL. In addition, the AUC in series [2] stood at 16.9 ± 8.28 ng·h/mL. In addition, in series [2], the AUC(0-inf) worked out at 16.9 ± 8.2 ng·h/mL. In series [2], this compound registered a peak concentration (Cmax) of 12.5 ± 4.38 ng/mL. This compound also came in with an MRT in series [2] of 1.55 ± 0.42 h. This compound also yielded an MRT inf in series [2] of 1.6 ± 0.4 h. Moreover, the Tmax in series [2] was found to be 0.63 ± 0.26 h. In series [2], this compound had a half-life of 2.08 ± 2.16 h.
